# Measured values reported in US20190388437A1, “COMPOSITIONS AND METHODS FOR TREATING BONE AND JOINT INFECTIONS” (priority 2014, published 2019).
# Like-named read-outs stand apart in the source and are kept apart here.
# How the values were obtained:
# [1] = tested on: methicillin-resistant S. aureus (MRSA) strain USA 300; type: cell-based, Staphylococcus aureus
# Procedure: (§1) Pharmacodynamics of CEM-102 against Methicillin-Resistant Staphylococcus aureus Using In vitro Models. A hollow fiber model was used to evaluate CEM-102 resistance potential in methicillin-resistant S. aureus (MRSA) strain USA 300 (Network of Antimicrobial Resistance in Staphylococcus aureus (MRSA), Chantilly, Va.). USA 300 is a highly virulent strain of MRSA and is the most common community-associated MRSA isolate in the USA. MIC values were determined in accordance with Clinical and Laboratory Standards Institute (CLSI).
# The hollow fiber model comprised a two-compartment hollow fiber model (Louie et al. Antimicrob Agents Chemother 52:2486-2496(2008)) consisting of a volume of 15 mL in the central compartment, with multiple ports for the removal of broth, delivery of antibiotics, and collection of bacterial and antimicrobial samples. […] All experiments were performed in duplicate.
# Hollow fibers contain 15 ml of media was prepared and inoculated with 10^6 colony forming units (CFU)/mL USA 300 bacteria. One of three different dosing regimens of […] was then applied to the fibers: (1) […] q12h; (2) 1200 mg/ml×2, followed by […], q12h; (3) 1500 mg/ml×2, followed by […], q12h.
# [2] = tested on: Group A beta hemolytic Streptococcus; details: cited from earlier work
# Staphylococcus = details: cited from earlier work
# [3] = Single oral dose bioavailability study, fed/fasted crossover; type: in vivo, healthy subjects (human)
# Procedure: Single oral dose bioavailability study of CEM-102 (sodium fusidate). […] This was a single-center, Phase 1, double-blind, randomized, 3 period, fed/fasted crossover bioequivalence study designed to evaluate the relative bioavailability and safety and tolerability of a single oral dose of CEM-102 500 mg compared to Fucidin® 500 mg in healthy subjects. Subjects were randomized in equal numbers to the 4 treatment sequences (Table 3).
# Study Period 1, 2, and 3 (Days 1, 15, and 29): One dose of study drug 500 mg (2×250 mg) of CEM-102 or Fucidin® was given at 8:00 AM (˜30 minutes). On Day 1 of Study Periods 1 and 2 (Days 1 and 15), subjects fasted overnight for at least 10 hours prior to dosing. On Day 1 of Study Period 3 (Day 29), subjects were given a high fat caloric meal which was to be entirely consumed within 30 minutes prior to study drug administration.
# Blood samples for assay of plasma concentrations were collected on Days 1, 15 and 29 at pre-dose and 0.5, 1, 1.5, 2, 2.5, 3, 3.5, 4, 6, 8, 12, 16, 24, 36, and 48 hours after the dose. Plasma concentrations were assayed at MicroConstants, Inc. in San Diego, Calif. using a validated liquid chromatography with dual tandem mass spectrometry (LC/MS/MS) method with a lower limit of quantitation (LLOQ) of 20.0 ng/mL
# [4] = tested on: S. aureus MRSA (Mec A genotype); experiment: Agar dilution MIC against resistant S. aureus; type: cell-based; details: Staphylococcus aureus
# Text: The in vitro activity of CEM-102 was compared with that of telithromycin, azithromycin, erythromycin, levofloxacin, linezolid, and doxycycline against a total of 145 resistant S. aureus by agar dilution procedures (CLSI, M7-A7, M100-S18). The tested strains included S. aureus MRSA (Mec A genotype; 100 isolates), macrolide-resistant (ermA, B, C genotype or MLSb-resistant; 25), and ciprofloxacin-resistant (gyrA and parC genotype; 20).
# [5] = tested on: methicillin-resistant S. aureus (MRSA) strain USA 300; experiment: CLSI MIC against MRSA strain USA 300; type: cell-based; details: Staphylococcus aureus
# Procedure: as §1
# [6] = Multi-dose bioavailability study, 500 mg TID; type: in vivo, healthy subjects (human)
# Procedure: Multi-dose bioavailability study using FA at 500 mg TID. The pharmacokinetics of multiple oral doses of CEM-102 (sodium fusidate) 500 mg tablets in healthy subjects was evaluated. […] Blood samples for assay of plasma concentrations of CEM-102 and placebo were collected pre-dose on Day 1 and at 24, 48, 72, and 96 hours. […] Plasma concentrations of CEM-102 were assayed at MicroConstants. Inc. in San Diego, Calif., USA using a validated LC/MS/MS method with a lower limit of quantitation (LLOQ) of 20.0 ng/mL.
# M. luteus = experiment: CLSI broth microdilution MIC, spectrum study; type: cell-based; details: Micrococcus luteus
# Procedure: (§2) CLSI broth microdilution (BMD) and anaerobic agar dilution (AD) methods were performed. Modifications of standard test methods included adding 10% human serum, adjusting the medium pH to 5, 6, and 8, and synergy was assessed by the checkerboard method. Mutational rates to R were determined at 4×.
# [7] = tested on: E. brevis, M. catarrhalis and N. meningitidis; experiment: CLSI broth microdilution MIC, spectrum study; type: cell-based
# Procedure: as §2
# Enterococci = experiment: CLSI broth microdilution MIC, spectrum study; type: cell-based
# Procedure: as §2
# streptococci = experiment: CLSI broth microdilution MIC, spectrum study; type: cell-based
# Procedure: as §2
# S. aureus = experiment: CLSI broth microdilution MIC, spectrum study; type: cell-based; details: Staphylococcus aureus
# Procedure: as §2
# Corynebacterium spp. = experiment: CLSI broth microdilution MIC, spectrum study; type: cell-based
# Procedure: as §2
compound,measurement,setting,value
"CC(=O)O[C@H]1C[C@@]2(C)[C@@H](C[C@@H](O)[C@H]3[C@@]4(C)CC[C@@H](O)[C@@H](C)[C@@H]4CC[C@@]32C)/C1=C(\CCC=C(C)C)C(=O)O [FA, fusidic acid]",outcome of treatment,[1]; 600 mg q12h,regrowth and development of resistance by 24 h and 48 h
same,reduction of bacterial counts,[1]; 1200 mg×2 then 600 mg q12h,~2 logs
same,time of rebound,[1]; 1200 mg×2 then 600 mg q12h,72 h
same,killing,[1]; 1500 mg×2 then 600 mg q12h,over 2.5 log
same,resistance suppressed until,[1]; 1500 mg×2 then 600 mg q12h,> 72 h
same,time of rebound,[1]; 1500 mg×2 then 600 mg q12h,144 h
same,MIC90,[2],4 to 8 µg/mL
same,MICs,[2]; classified as moderately susceptible,4-16 micrograms per ml
same,MIC in plasma protein,Staphylococcus,≥ 2.5 micrograms per ml
same,increase of MIC in plasma protein,Staphylococcus,8-10 fold
same,total exposure (AUC),"[3]; 500 mg, fasting",~318 µg·h/mL
same,total exposure (AUC),"[3]; 500 mg, fed",approximately 285 μg·h/mL
same,"tmax, median","[3]; human, in vivo, po",~3.00 h
same,"t1/2, arithmetic mean ± SD","[3]; human, in vivo, po, 500 mg",~11.8 h
same,"tmax, median","[3]; single oral 500 mg (2×250 mg), fasting",3.00 h
same,"tmax, median","[3]; single oral 500 mg (2×250 mg), fed",3.50 h
same,MIC90,[4],0.25 µg/mL
same,MIC,[5],0.25 µg/mL
same,"Cmaxss, geometric mean (CV %)","[6]; human, in vivo, 500 mg",145680 (25.3) ng/mL
same,"t½ss, arithmetic mean ± SD","[6]; human, in vivo, 500 mg",approximately 19 h
same,Trough level,"[6]; prior to dosing on Day 5, 500 mg TID",105 µg/mL
same,MIC,M. luteus,≤ 0.5 µg/mL
same,MIC,[7],0.12 to 0.5 µg/mL
same,MIC range,Enterococci,2 to 8 µg/mL
same,MIC range,streptococci,16 to 32 µg/mL
same,MIC,S. aureus,0.25 µg/mL
same,MIC,Corynebacterium spp.,≤ 0.12 µg/mL
